Experimental data published in PubChem BioAssay AID2060512 (Molecular Pharmacology Branch, DTP, NCI, 2025).

System: 186277-243-T-J2-PDC complex spheroid viability
Assay: Anticancer human tumor 186277-243-T-J2-PDC patient-derived colon adenocarcinoma cell line growth inhibition [GQUAD]
Settings: for IC50: curve of first compound; for viability, T/C: stronger effect = lower value
Method in brief: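 Viability of tumor cells grown as complex spheroids with endothelial and stromal cells, exposed to drug combinations. Top concentration at or near clinical Cmax (else 10 microM), diluted in half-log increments.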

[1] = second compound 0.0316 µM, first compound 0.0316 µM
[2] = second compound 0.0316 µM, first compound 0.1 µM
[3] = second compound 0.0316 µM, first compound 0.316 µM
[4] = second compound 0.0316 µM, first compound 1 µM
[5] = second compound 0.0316 µM, first compound 3.16 µM
[6] = second compound 0.0316 µM, first compound 10 µM
[7] = second compound 0.1 µM, first compound 0.0316 µM
[8] = second compound 0.1 µM, first compound 0.1 µM
[9] = second compound 0.1 µM, first compound 0.316 µM
[10] = second compound 0.1 µM, first compound 1 µM
[11] = second compound 0.1 µM, first compound 3.16 µM
[12] = second compound 0.1 µM, first compound 10 µM
[13] = second compound 0.316 µM, first compound 0.0316 µM
[14] = second compound 0.316 µM, first compound 0.1 µM
[15] = second compound 0.316 µM, first compound 0.316 µM
[16] = second compound 0.316 µM, first compound 1 µM
[17] = second compound 0.316 µM, first compound 3.16 µM
[18] = second compound 0.316 µM, first compound 10 µM
[19] = second compound 1 µM, first compound 0.0316 µM
[20] = second compound 1 µM, first compound 0.1 µM
[21] = second compound 1 µM, first compound 0.316 µM
[22] = second compound 1 µM, first compound 1 µM
[23] = second compound 1 µM, first compound 3.16 µM
[24] = second compound 1 µM, first compound 10 µM
[25] = second compound 3.16 µM, first compound 0.0316 µM
[26] = second compound 3.16 µM, first compound 0.1 µM
[27] = second compound 3.16 µM, first compound 0.316 µM
[28] = second compound 3.16 µM, first compound 1 µM
[29] = second compound 3.16 µM, first compound 3.16 µM
[30] = second compound 3.16 µM, first compound 10 µM
[31] = second compound 10 µM, first compound 0.0316 µM
[32] = second compound 10 µM, first compound 0.1 µM
[33] = second compound 10 µM, first compound 0.316 µM
[34] = second compound 10 µM, first compound 1 µM
[35] = second compound 10 µM, first compound 3.16 µM
[36] = second compound 10 µM, first compound 10 µM
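Throughout, for viability, T/C: 100% = DMSO vehicle control viability.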

Molecule `C#Cc1c(F)ccc2cc(O)cc(-c3ncc4c(N5CC6CCC(C5)N6)nc(OCC56CCCN5CC(F)C6)nc4c3F)c12` (stereo not drawn) + Cc1cnc(CNC(=O)c2c(=O)c3ccc(N4CCCN(C)CC4)nc3n3c2sc2ccccc23)cn1 has an IC50 (second compound 0.0316 µM) of 58.7 nM, an IC50 (second compound 0.1 µM) of less than 31.6 nM and an IC50 (second compound 0.316 µM) of less than 31.6 nM. The IC50 (second compound 1 µM) was less than 31.6 nM, the IC50 (second compound 3.16 µM) was less than 31.6 nM and the IC50 (second compound 10 µM) was less than 31.6 nM. For the same molecule, the viability, T/C [1] was 75.4%, the viability, T/C [2] was 26.8% and the viability, T/C [3] was 19.9%. It also gave a viability, T/C [4] of 8.12%, a viability, T/C [5] of 13.9% and a viability, T/C [6] of 11.4%. It also gave a viability, T/C [7] of 40%, a viability, T/C [8] of 18.8% and a viability, T/C [9] of 9.79%. The viability, T/C [10] was 7.98%, the viability, T/C [11] was 9.12% and the viability, T/C [12] was 5.32%. The viability, T/C [13] was 23.8%, the viability, T/C [14] was 14.6% and the viability, T/C [15] was 8.91%. It also gave a viability, T/C [16] of 5.69%, a viability, T/C [17] of 5.84% and a viability, T/C [18] of 4.29%. The viability, T/C [19] was 18.2%, the viability, T/C [20] was 9.62% and the viability, T/C [21] was 6.74%. For the same molecule, the viability, T/C [22] was 5.02%, the viability, T/C [23] was 5.11% and the viability, T/C [24] was 3.11%. It also gave a viability, T/C [25] of 17.2%, a viability, T/C [26] of 12.5% and a viability, T/C [27] of 5.45%. The viability, T/C [28] was 4.44%, the viability, T/C [29] was 4.72% and the viability, T/C [30] was 2.99%. It also gave a viability, T/C [31] of 14.2%, a viability, T/C [32] of 9.54% and a viability, T/C [33] of 4.98%. The viability, T/C [34] was 0.27%, the viability, T/C [35] was 2.03% and the viability, T/C [36] was 0.19%.

`C=CC(=O)N1CCN(c2nc(=O)n(-c3c(C)ccnc3C(C)C)c3nc(-c4c(O)cccc4F)c(F)cc23)C(C)C1` (stereo not drawn) + Cc1cnc(CNC(=O)c2c(=O)c3ccc(N4CCCN(C)CC4)nc3n3c2sc2ccccc23)cn1 showed an IC50 (second compound 0.0316 µM) greater than 10000 nM, an IC50 (second compound 0.1 µM) greater than 10000 nM and an IC50 (second compound 0.316 µM) greater than 10000 nM. It also gave an IC50 (second compound 1 µM) greater than 10000 nM, an IC50 (second compound 3.16 µM) of less than 31.6 nM and an IC50 (second compound 10 µM) greater than 10000 nM. For the same molecule, the viability, T/C [1] was 89.2%, the viability, T/C [2] was 106% and the viability, T/C [3] was 105%. For the same molecule, the viability, T/C [4] was 94.1%, the viability, T/C [5] was 109% and the viability, T/C [6] was 88.6%. The viability, T/C [7] was 84.6%, the viability, T/C [8] was 91.3% and the viability, T/C [9] was 99%. The viability, T/C [10] was 83.7%, the viability, T/C [11] was 96.1% and the viability, T/C [12] was 76.1%. The viability, T/C [13] was 81.5%, the viability, T/C [14] was 58.7% and the viability, T/C [15] was 75.7%. The viability, T/C [16] was 75.3%, the viability, T/C [17] was 75.8% and the viability, T/C [18] was 66.4%. For the same molecule, the viability, T/C [19] was 59.9%, the viability, T/C [20] was 62% and the viability, T/C [21] was 65.6%. For the same molecule, the viability, T/C [22] was 66.7%, the viability, T/C [23] was 68.4% and the viability, T/C [24] was 66.1%. It also gave a viability, T/C [25] of 50.3%, a viability, T/C [26] of 47.4% and a viability, T/C [27] of 52.4%. For the same molecule, the viability, T/C [28] was 53.7%, the viability, T/C [29] was 62.8% and the viability, T/C [30] was 46%. It also gave a viability, T/C [31] of 53.2%, a viability, T/C [32] of 46.5% and a viability, T/C [33] of 49.3%. It also gave a viability, T/C [34] of 56.2%, a viability, T/C [35] of 61.3% and a viability, T/C [36] of 47.6%.

For `CC(=O)O[C@H]1C(=O)[C@@]2(C)[C@H]([C@H](OC(=O)c3ccccc3)[C@]3(O)C[C@H](OC(=O)[C@H](O)[C@@H](NC(=O)c4ccccc4)c4ccccc4)C(C)=C1C3(C)C)[C@]1(OC(C)=O)CO[C@@H]1C[C@@H]2O` + Cc1cnc(CNC(=O)c2c(=O)c3ccc(N4CCCN(C)CC4)nc3n3c2sc2ccccc23)cn1, the IC50 (second compound 0.0316 µM) was less than 31.6 nM, the IC50 (second compound 0.1 µM) was less than 31.6 nM and the IC50 (second compound 0.316 µM) was less than 31.6 nM. It also gave an IC50 (second compound 1 µM) of less than 31.6 nM, an IC50 (second compound 3.16 µM) of less than 31.6 nM and an IC50 (second compound 10 µM) of less than 31.6 nM. The viability, T/C [1] was 25.6%, the viability, T/C [2] was 11.8% and the viability, T/C [3] was 7.83%. The viability, T/C [4] was 7.31%, the viability, T/C [5] was 7.28% and the viability, T/C [6] was 7.34%. It also gave a viability, T/C [7] of 26.4%, a viability, T/C [8] of 18.3% and a viability, T/C [9] of 11.9%. For the same molecule, the viability, T/C [10] was 11.9%, the viability, T/C [11] was 11% and the viability, T/C [12] was 10.4%. It also gave a viability, T/C [13] of 32.6%, a viability, T/C [14] of 18.1% and a viability, T/C [15] of 18.1%. For the same molecule, the viability, T/C [16] was 20.5%, the viability, T/C [17] was 17% and the viability, T/C [18] was 16.6%. The viability, T/C [19] was 29.4%, the viability, T/C [20] was 29.9% and the viability, T/C [21] was 23.1%. For the same molecule, the viability, T/C [22] was 25.1%, the viability, T/C [23] was 23.8% and the viability, T/C [24] was 21.5%. It also gave a viability, T/C [25] of 24.4%, a viability, T/C [26] of 27% and a viability, T/C [27] of 24%. For the same molecule, the viability, T/C [28] was 23.5%, the viability, T/C [29] was 25.5% and the viability, T/C [30] was 22.3%. It also gave a viability, T/C [31] of 29.8%, a viability, T/C [32] of 25.5% and a viability, T/C [33] of 26.1%. The viability, T/C [34] was 25.2%, the viability, T/C [35] was 24.8% and the viability, T/C [36] was 23.7%.

`CCCS(=O)(=O)Nc1ccc(F)c(C(=O)c2c[nH]c3ncc(-c4ccc(Cl)cc4)cc23)c1F` + Cc1cnc(CNC(=O)c2c(=O)c3ccc(N4CCCN(C)CC4)nc3n3c2sc2ccccc23)cn1 was tested, and the IC50 (second compound 0.0316 µM) was 6120 nM, the IC50 (second compound 0.1 µM) was 4930 nM and the IC50 (second compound 0.316 µM) was 4410 nM. The IC50 (second compound 1 µM) was less than 31.6 nM, the IC50 (second compound 3.16 µM) was less than 31.6 nM and the IC50 (second compound 10 µM) was less than 31.6 nM. It also gave a viability, T/C [1] of 113%, a viability, T/C [2] of 102% and a viability, T/C [3] of 116%. The viability, T/C [4] was 95.4%, the viability, T/C [5] was 88.3% and the viability, T/C [6] was 23.4%. It also gave a viability, T/C [7] of 79.3%, a viability, T/C [8] of 72.4% and a viability, T/C [9] of 93.1%. For the same molecule, the viability, T/C [10] was 74.1%, the viability, T/C [11] was 72.3% and the viability, T/C [12] was 14.5%. The viability, T/C [13] was 63.6%, the viability, T/C [14] was 62.3% and the viability, T/C [15] was 68.5%. It also gave a viability, T/C [16] of 59%, a viability, T/C [17] of 65.7% and a viability, T/C [18] of 16.1%. The viability, T/C [19] was 47.7%, the viability, T/C [20] was 47% and the viability, T/C [21] was 54.8%. The viability, T/C [22] was 49.3%, the viability, T/C [23] was 47.5% and the viability, T/C [24] was 15.8%. For the same molecule, the viability, T/C [25] was 31.3%, the viability, T/C [26] was 43.9% and the viability, T/C [27] was 48.8%. It also gave a viability, T/C [28] of 41%, a viability, T/C [29] of 38.3% and a viability, T/C [30] of 9.83%. It also gave a viability, T/C [31] of 47.6%, a viability, T/C [32] of 36.8% and a viability, T/C [33] of 37.3%. The viability, T/C [34] was 40.4%, the viability, T/C [35] was 37.8% and the viability, T/C [36] was 0.36%.
